Source: patent publication US20250368639A1, “SOLID FORMS OF A COMPOUND FOR TREATING OR PREVENTING HYPERURICEMIA OR GOUT” (ATOM THERAPEUTICS CO., LTD, priority 2022, published 2025)
Converted amounts (≈) assume the structure as drawn. Where two headings read alike, the source gives them in different places.

What was measured:
[1] = Single-dose pharmacokinetic study, oral and intravenous, in SD rats; type: in vivo, SD rat; conditions: for AUC(0-inf): read-out: AUCINF—pred; for half-life: read-out: HL_Lambda_z (T1/2) (converted); for Vd/F: read-out: Vz—F—pred;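 on AUClast: AUClast in h·ng/mL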
Description: Form 1, Form 2, and Form 5D were each evaluated via a single-dose pharmacokinetic study following oral and intravenous administration in SD rats. […] Form 1, Form 2, and Form 5Dwere evaluated by rat pharmacokinetics study.
Male SD rat was purchased from Shanghai Sippr B&K Laboratory Animals Co., Ltd. The weight was 180 g˜200 g.
20% HP-β-CD was prepared from dissolving20 g of HP-β-CD (from Sigma) in 100 mL purified water. 0.5% CMC-Na was prepared from dissolving 1 g of CMC-Na (from Aladdin) in 200 mL purified water. The solutions were stored at 2-8 degree.
(§1) Group 1:4.95 mg (equivalent to 4.50 mg of anhydrous free base) of Form 1 was weighed out into a 20 ml bottle, and totally dissolved by 0.225 mL DMSO by sonication. After that, 4.275 mL of 20% HP-β-CD was added, mixed well by sonication. Finally, the pH value was adjusted to 7.0 by sodium hydroxide solution. The clear solution was obtained, and the concentration was 1 mg/mL.
Group 2:10.08 mg (equivalent to 9.164 mg of anhydrous free base) of Form 1 was weighed out into a 20 ml bottle, and then 9.164 mL of 0.5% CMC-Na was added. A white suspension was formed after sonicated by ultrasonic cell disruptor, and the concentration was 1 mg/mL.
Group 3:9.47 mg of Form 2 was weighed out into a 20 ml bottle, and then 9.470 mL of 0.5% CMC-Na was added. After sonicated, it was mixed well by homogenizer for 2 minutes. Finally, a white suspension was formed, and the concentration was 1 mg/mL.
Group 4:9.80 mg (equivalent to 8.909 mg of free base) of Form 5Dwas weighed out into a 20 mL bottle, and then 8.909 mL of 0.5% CMC-Na was added. After sonicated, it was mixed well by homogenizer for 2 minutes. Finally, a white suspension was formed, and the concentration was 1 mg/mL.
as §1, with “Group 5:1.94” for “Group 1:4.95”, “to 1.763” for “to 4.50”, “by 0.088” for “by 0.225”, “that, 1.675” for “that, 4.275”, “was 0.2” for “was 1”
The dose of intravenous administration was 1 mg/kg and 5 mg/kg, respectively. The oral dose was 10 mg/kg. Animals were fasted overnight before drug administration. After the drug administration, the rats were fed at the 4 hours.
About 150˜200 μL of blood was collected at the initial time (only intravenous), and at 0.25, 0.5, 1, 2, 4, 6, 8 and 24 h by jugular venipuncture blooding method. EDTA-K2 was selected as anticoagulant. Blood samples were centrifuged within one hour at 6000 rpm for 8 minutes (placed on wet ice before centrifugation). The supernatant was stored at −20° C. for LC-MS/MS analysis.
The computer program Microsoft Office Excel 2007 (Microsoft, USA) was used to process data and graphics. The pharmacokinetic parameters were calculated by WinNolin 6.4 software.

[2] = Solubility in water, buffers and bio-relevant media (37° C., 24 h shaking, HPLC); type: physicochemical; conditions: for Solubility: 37° C., 24 h; for Appearance / solubility in water: shaken about 24 hours, compared with Form 1
Description: The solubility of Form 1, Form 2, Form 5D, Form 6, Form 8, and Form 11 was analyzed in water, 0.1NaqueousHCl, pH4.5 acetate buffer solution, pH6.8 phosphate buffer solution, simulated gastric fluid (SGF), Fasted State Simulated Intestinal Fluid (FaSSIF), and Fed State Simulated Intestinal Fluid (FeSSIF).
About 5 mg or 10 mg of sample was weighed out into each vial and mixed with about 5 ml of medium to form a solution. The target concentration for the potassium salt in water was 2 mg/ml; and the target concentration for all other forms were 1 mg/mL. All samples were kept shaking at 200 rounds per minute (rpm) under 37° C. for 24 hours. The pH value of these samples were determined after shaking for 24 hours. Subsequently, they were centrifuged at the speed of 12000 rpm for 2 mins. The supernatant was diluted with methanol as necessary, and the concentrations were determined by HPLC. When the solubility of potassium salt was tested in water, the supernatant was diluted 100 times, while no other samples were diluted. The HPLC analysis utilizes Agilent Eclipse XDB-C8 4.6*150 mm, 5 μm column at 40° C., a mobile phase of 0.1% TFA: ACN=70:30, an injection volume of 10 μl, a flow rate of 1.0 ml/min, a diluent of methanol, and a detection wavelength of 234 nm.

[3] = Suspensions for animal formulation in 0.5% CMC-Na (XRPD); type: physicochemical; conditions: about 30 mg in 30 ml, sonication
Description: About 30 mg of Form 1, Form 2, and Form 5D were each added into a respective 40 ml glass bottle and mixed with 30 ml of 0.5% CMC-Na solution. The solids were dispersed uniformly in the solution with the aid of sonication. After that, the solids were isolated by centrifugation, dried at room temperature, and the dry solid analyzed with XRPD.

[4] = Dynamic vapor sorption/desorption (DVS); type: physicochemical; conditions: 25° C., 85% RH
Description: Moisture sorption/desorption data were collected on a SMS DVS intrinsic Vapor Sorption Analyzer under a nitrogen purge. The DVS experiment generally includes a moisture sorption step and a moisture desorption step. […] In other words, the sample is considered to have reached an equilibrium between moisture sorption and desorption under the relative humidity when dm/dt≤0.01%. The sample was maintained at the temperature of 25° C. with relative humidity varied from 0% to 95%, and back to 0% at an increment of 5% RH each step.

[5] = Slurry stability in purified water (XRPD); type: physicochemical; conditions: stirred overnight at room temperature
Description: About 30 mg of Form land Form 5D, Form 6, and Form 8 were mixed with about 2.5 ml of purified water, and the mixtures were stirred for overnight at room temperature. The wet solids were isolated by centrifugation, and further dried in vacuum for 2.5 hours before being analyzed with XRPD.

[6] = Solid state stability under stress conditions (XRPD, HPLC); type: physicochemical; conditions: closed vial about 60° C.; closed vial about 40° C./75% RH; 1 week and 2 weeks
Description: Form 1. Form 2, Form 6, Form 8, and Form 11 were each placed under following stress conditions: (1) in a closed vial at a temperature of about 60° C., and (2) in a closed vial at a temperature of about 40′° C. and a humidity of about 75% RH. The solids were analyzed with XRPD at 1 week and 2 weeks intervals.
Additionally, all forms were analyzed with HPLC for impurity at the 1 week and 2 weeks intervals. In a typical analysis, about 5 mg of forms were each dissolved in 10 ml of diluents with the aid of sonication for 2 minutes. THF was used as the diluent for Form 1, and methanol was used as the diluent for Form 6, Form 8, and Form 11. The HPLC analysis utilized Agilent Eclipse XDB-C18 4.6*150 mm. 3.5 μm at 30° C., a mobile phase of a gradient between 0.1% H3PO4 and acetonitrile (9:1 to 2:8 to 9:1), an injection volume of 10 μl, a flow rate of 1.0 ml/min, and a detection wavelength of 214 nm.
Form 2 was further subject to the stability test in an open vial at 40° C. and a relative humidity of 75% RH.

[7] = male SD rats, oral 10 mg/kg, Average (Table 11)
[8] = male, SD, rat, plasma, po, 10 mg/kg, male SD rats, oral 10 mg/kg, Average (Table 11)
[9] = male, SD, rat, plasma, po, 10 mg/kg, male SD rats, oral 10 mg/kg, individual rats 401/402/403 (c1/c2/c3)

CCc1nc2ccccn2c1C(=O)c1cc(Br)c(O)c(C#N)c1 [Form 5D, 3-bromo-5-[(2-ethylimidazo[1,2-a]pyridin-3-yl)carbonyl]-2-hydroxybenzonitrile]
Exposure and bioavailability (words, comparison) ([1]; SD rats, oral administration 10 mg/kg, 10 mg/kg): approximately the same as results from third parties
AUClast [1, 7]: 91914.8 ng·h/mL
Cl—F—pred [1, 7]: 1.83 mL/min/kg
F ([1]; male SD rats, oral 10 mg/kg, calculated by intravenous administration of 1 mg/kg, Average (Table 11)): 52.96%
Cmax [1, 8]: 8980 ng/mL
MRT last [1, 8]: 5.95 h
Tmax [1, 8]: 3.33 h
AUC(0-inf) [1, 8]: 92700 ng·h/mL
half-life [1, 8]: 3.4 h
Vd/F [1, 8]: 0.53 L/kg
AUC(0-t) [1, 9]: 84700 ng·h/mL
Cmax [1, 9]: 8540 ng/mL
MRT last [1, 9]: 6.11 h
Tmax [1, 9]: 4 h
AUC(0-inf) [1, 9]: 96600 ng·h/mL
half-life [1, 9]: 3.55 h
Vd/F [1, 9]: 0.53 L/kg
Solubility ([2]; 0.1N HCl): 8.3 µg/mL (≈ 22.4 µM)
Solubility ([2]; FaSSIF): 55.8 µg/mL (≈ 151 µM)
Solubility ([2]; FeSSIF): 5.4 µg/mL (≈ 14.6 µM)
Solubility ([2]; SGF): 7.4 µg/mL (≈ 20 µM)
Solubility ([2]; Water): 0.8 µg/mL (≈ 2.16 µM)
Solubility ([2]; pH 4.5 acetate buffer): 1.3 µg/mL (≈ 3.51 µM)
Solubility ([2]; pH 6.8 phosphate buffer): 47.7 µg/mL (≈ 129 µM)
Appearance / solubility in water [2]: reduced solubility in water
Crystal form after dispersion in 0.5% CMC-Na solution (XRPD) [3]: did not change
DVS (85% RH) [4]: 2.14%
Crystal form after slurry in purified water (XRPD) [5]: transformed into Form 1

CCc1nc2ccccn2c1C(=O)c1cc(Br)c(O)c(C#N)c1 [Form 6, 3-bromo-5-[(2-ethylimidazo[1,2-a]pyridin-3-yl)carbonyl]-2-hydroxybenzonitrile]
XRPD pattern after stress storage [6]: substantially similar to those received at the initial time
Solubility ([2]; 0.1N HCl): 4.6 µg/mL (≈ 12.4 µM)
Solubility ([2]; FaSSIF): 45.8 µg/mL (≈ 124 µM)
Solubility ([2]; FeSSIF): 4.4 µg/mL (≈ 11.9 µM)
Solubility ([2]; SGF): 3.3 µg/mL (≈ 8.91 µM)
Solubility ([2]; Water): 0.4 µg/mL (≈ 1.08 µM)
Solubility ([2]; pH 4.5 acetate buffer): 0.5 µg/mL (≈ 1.35 µM)
Solubility ([2]; pH 6.8 phosphate buffer): 25.7 µg/mL (≈ 69.4 µM)
Appearance / solubility in water [2]: reduced solubility in water
DVS (85% RH) [4]: 0.35%
Crystal form after slurry in purified water (XRPD) [5]: transformed into Form 1

CCc1nc2ccccn2c1C(=O)c1cc(Br)c(O)c(C#N)c1 [Form 7, 3-bromo-5-[(2-ethylimidazo[1,2-a]pyridin-3-yl)carbonyl]-2-hydroxybenzonitrile]
DVS (85% RH) [4]: 1.93%

CCc1nc2ccccn2c1C(=O)c1cc(Br)c(O)c(C#N)c1 [Form 8, 3-bromo-5-[(2-ethylimidazo[1,2-a]pyridin-3-yl)carbonyl]-2-hydroxybenzonitrile]
XRPD pattern after stress storage [6]: substantially similar to those received at the initial time
Solubility ([2]; 0.1N HCl): 5.3 µg/mL (≈ 14.3 µM)
Solubility ([2]; FaSSIF): 14.5 µg/mL (≈ 39.2 µM)
Solubility ([2]; FeSSIF): 8.6 µg/mL (≈ 23.2 µM)
Solubility ([2]; SGF): 3.5 µg/mL (≈ 9.45 µM)
Solubility ([2]; Water): 0.5 µg/mL (≈ 1.35 µM)
Solubility ([2]; pH 4.5 acetate buffer): 0.6 µg/mL (≈ 1.62 µM)
Solubility ([2]; pH 6.8 phosphate buffer): 17.9 µg/mL (≈ 48.4 µM)
Appearance / solubility in water [2]: reduced solubility in water
DVS (85% RH) [4]: 4.66%
Crystal form after slurry in purified water (XRPD) [5]: transformed into Form 1

CCc1nc2ccccn2c1C(=O)c1cc(Br)c(O)c(C#N)c1 [Form 9, 3-bromo-5-[(2-ethylimidazo[1,2-a]pyridin-3-yl)carbonyl]-2-hydroxybenzonitrile]
DVS (85% RH) [4]: 0.29%

CCc1nc2ccccn2c1C(=O)c1cc(Br)c(O)c(C#N)c1 [Form 10, 3-bromo-5-[(2-ethylimidazo[1,2-a]pyridin-3-yl)carbonyl]-2-hydroxybenzonitrile]
DVS (85% RH) [4]: 2.37%

CCc1nc2ccccn2c1C(=O)c1cc(Br)c(O)c(C#N)c1 [Form 11, 3-bromo-5-[(2-ethylimidazo[1,2-a]pyridin-3-yl)carbonyl]-2-hydroxybenzonitrile]
XRPD pattern after stress storage [6]: substantially similar to those received at the initial time
Solubility ([2]; 0.1N HCl): 6.8 µg/mL (≈ 18.4 µM)
Solubility ([2]; FaSSIF): 28.4 µg/mL (≈ 76.7 µM)
Solubility ([2]; FeSSIF): 3.4 µg/mL (≈ 9.18 µM)
Solubility ([2]; SGF): 5.8 µg/mL (≈ 15.7 µM)
Solubility ([2]; Water): 1914.5 µg/mL (≈ 5170 µM)
Solubility ([2]; pH 4.5 acetate buffer): 1.7 µg/mL (≈ 4.59 µM)
Solubility ([2]; pH 6.8 phosphate buffer): 31.0 µg/mL (≈ 83.7 µM)
Appearance / solubility in water [2]: nearly clear solution in water
DVS (85% RH) [4]: 6.18%

CCc1nc2ccccn2c1C(=O)c1cc(Br)c(O)c(C#N)c1 [Form 12, 3-bromo-5-[(2-ethylimidazo[1,2-a]pyridin-3-yl)carbonyl]-2-hydroxybenzonitrile]
DVS (85% RH) [4]: 8.07%
